Experimental data: ChEMBL document CHEMBL4152353, “Synthesis of DNA interactive C3-trans-cinnamide linked β-carboline conjugates as potential cytotoxic and DNA topoisomerase I inhibitors” (Bioorg Med Chem, 2018)
Calls of active or inactive are those of the source. The calls are words filed in the database; no cut-off is given here.

Legend:
NIH3T3 = assay: Cytotoxicity against mouse NIH/3T3 cells after 48 hrs by MTT assay; type: cell-based; conditions: NIH3T3, 48 h
HeLa = assay: Cytotoxicity against human HeLa cells after 48 hrs by MTT assay; type: functional, cell-based
B16 = assay: Cytotoxicity against mouse B16 cells after 48 hrs by MTT assay; type: functional, cell-based; conditions: B16, 48 h
A549 = assay: Cytotoxicity against human A549 cells after 48 hrs by MTT assay; type: functional, cell-based; conditions: A549, 48 h
MCF7 = assay: Cytotoxicity against human MCF7 cells after 48 hrs by MTT assay; type: functional, cell-based; conditions: MCF7, 48 h
Calf thymus DNA = assay: Binding affinity to calf thymus DNA assessed as increase in viscosity at 15 uM by viscometric method; type: nucleic-acid assay; conditions: Bos taurus

| SMILES | IC50 (NIH3T3) [nM] | IC50 (HeLa) [nM] | IC50 (B16) [nM] | IC50 (A549) [nM] | IC50 (MCF7) [nM] | Activity (Calf thymus DNA) |
| --- | --- | --- | --- | --- | --- | --- |
| O=C(/C=C/c1ccc(Cl)c(Cl)c1)NCc1cc2c([nH]c3ccccc32)c(-c2cccc(F)c2)n1 | 39 | 24.9 | 18.9 | 18 | 17 | – |
| COc1cc(/C=C/C(=O)NCc2cc3c([nH]c4ccccc43)c(-c3cccc(F)c3)n2)cc(OC)c1OC | 36 | 23 | 19.8 | 17.9 | 16.2 | – |
| COc1ccc(-c2nc(CNC(=O)/C=C/c3ccc(O)c(OC)c3)cc3c2[nH]c2ccccc23)cc1 | 39.9 | 24.9 | 19.8 | 21.2 | 17.2 | – |
| COc1cc(/C=C/C(=O)NCc2cc3c([nH]c4ccccc43)c(-c3cc(OC)c(OC)c(OC)c3)n2)ccc1O | 43.1 | 26 | 19 | 18.3 | 17.6 | – |
| COc1ccc(-c2nc(CNC(=O)/C=C/c3cc(F)cc(F)c3)cc3c2[nH]c2ccccc23)cc1 | 37.5 | 24.6 | 23.9 | 20 | 17.2 | – |
| COc1ccc(OC)c(/C=C/C(=O)NCc2cc3c([nH]c4ccccc43)c(-c3cccc(F)c3)n2)c1 | 39.6 | 21.9 | 19.9 | 22.2 | 17.5 | – |
| COc1ccc(-c2nc(CNC(=O)/C=C/c3cc(OC)c(OC)c(OC)c3)cc3c2[nH]c2ccccc23)cc1 | 39.3 | 22.9 | 17.4 | 19.7 | 13.9 | – |
| COc1ccc(-c2nc(CNC(=O)/C=C/c3cc(OC)ccc3OC)cc3c2[nH]c2ccccc23)cc1 | 34.4 | 25.4 | 22.1 | 18.9 | 16.5 | – |
| COc1cc(-c2nc(CNC(=O)/C=C/c3ccc(Cl)cc3)cc3c2[nH]c2ccccc23)cc(OC)c1OC | 35.6 | 26.8 | 18.7 | 18.9 | 17.5 | – |
| O=C(/C=C/c1ccc(F)cc1)NCc1cc2c([nH]c3ccccc32)c(-c2cccc(F)c2)n1 | 30.8 | 24.3 | 16.8 | 16.3 | 16.5 | – |
| CC[n+]1c(-c2ccccc2)c2cc(N)ccc2c2ccc(N)cc21 | – | – | – | – | – | Active |
| COc1cc(-c2nc(CNC(=O)/C=C/c3cc(F)cc(F)c3)cc3c2[nH]c2ccccc23)cc(OC)c1OC | 36.3 | 23.8 | 24.1 | 21.6 | 19.6 | – |
| COc1cc(/C=C/C(=O)NCc2cc3c([nH]c4ccccc43)c(-c3cccc(F)c3)n2)ccc1O | 36.9 | 23.9 | 19.4 | 22.4 | 17.9 | – |
| C/C=C/C(=O)NCc1cc2c([nH]c3ccccc32)c(-c2ccc(OC)cc2)n1 | 2670 | 5410 | – | 3360 | 10800 | – |
| COc1cc(/C=C/C(=O)NCc2cc3c([nH]c4ccccc43)c(-c3cc(OC)c(OC)c(OC)c3)n2)cc(OC)c1OC | 38.9 | 23.5 | 17.2 | 21.3 | 16.5 | – |
| COc1ccc(OC)c(/C=C/C(=O)NCc2cc3c([nH]c4ccccc43)c(-c3cc(OC)c(OC)c(OC)c3)n2)c1 | 39 | 25.1 | 19.2 | 18.8 | 17.2 | – |
| COc1cc(-c2nc(CNC(=O)/C=C/c3cccc(O)c3)cc3c2[nH]c2ccccc23)cc(OC)c1OC | 38.2 | 23.6 | 21.8 | 19.5 | 16.8 | – |
| C=CCNC(=O)/C=C/c1cccc(O)c1 | > 50000 | > 50000 | – | > 50000 | > 50000 | – |
| COc1ccc(-c2nc(CNC(=O)CCCl)cc3c2[nH]c2ccccc23)cc1 | > 50000 | > 50000 | – | > 50000 | > 50000 | – |
| COc1cc(-c2nc(CNC(=O)/C=C/c3ccc(Cl)c(Cl)c3)cc3c2[nH]c2ccccc23)cc(OC)c1OC | 39.2 | 25.9 | 16.9 | 20.4 | 17.5 | – |
| O=C(/C=C/c1cc(F)cc(F)c1)NCc1cc2c([nH]c3ccccc32)c(-c2cccc(F)c2)n1 | 36 | 23.6 | 18.2 | 21 | 16.5 | – |
| COc1cccc2c1C(=O)c1c(O)c3c(c(O)c1C2=O)C[C@@](O)(C(=O)CO)C[C@@H]3O[C@H]1C[C@H](N)[C@H](O)[C@H](C)O1 [DOXORUBICIN] | 1720 | 780 | 670 | – | 580 | – |
| COc1ccc(-c2nc(CNC(=O)/C=C/c3ccc(F)cc3)cc3c2[nH]c2ccccc23)cc1 | 36.9 | 22.8 | 21.9 | 20.2 | 18.2 | – |
| O=C(/C=C/c1cccc(O)c1)NCc1cc2c([nH]c3ccccc32)c(-c2cccc(F)c2)n1 | 35.7 | 27 | 24.9 | 23.4 | 19.2 | – |
| COc1cc(-c2nc(CNC(=O)/C=C/c3ccc(F)cc3)cc3c2[nH]c2ccccc23)cc(OC)c1OC | 43 | 20 | 17.2 | 18.7 | 16.4 | – |
| O=C(/C=C/c1ccc(Cl)cc1)NCc1cc2c([nH]c3ccccc32)c(-c2cccc(F)c2)n1 | 43.6 | 19.2 | 18.2 | 19.6 | 18.3 | – |
| COc1ccc(-c2nc(CNC(=O)/C=C/c3ccc(Cl)c(Cl)c3)cc3c2[nH]c2ccccc23)cc1 | 37.5 | 21.6 | 23 | 18.4 | 16.4 | – |
